Legend:
Assay in all cases: combination Emax (second highest fraction inhibited in the dose matrix, 72 h); higher = more inhibition; extreme values may be limits of the assay
[1] = test system: SNG-M (Endometrial Carcinoma)
Procedure, shortened: (§1)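 Bliss excess equals the observed combination effect minus the expected value EA + EB − EA·EB, where EA and EB are the effects of each agent alone. Combination Emax is the second-highest inhibition within the matrix. Inhibition was scaled from CellTiter-Glo 2.0 luminescence, with 0 set by vehicle wells and 1 by blank wells, after 72 hours of two-drug dosing of cells plated in 1536-well plates.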

[2] = test system: JHH-6 (Hepatocellular Carcinoma)
Procedure, shortened: as §1

[3] = test system: SW948 (Colorectal Carcinoma)
Procedure, shortened: as §1

CS1 (Chondrosarcoma) = test system: CS1 (Chondrosarcoma)
Procedure, shortened: as §1

[4] = test system: HCC1143 (Breast Carcinoma)
Procedure, shortened: as §1

[5] = test system: YT (Other Blood Carcinomas)
Procedure, shortened: as §1

HuO9 (Osteosarcoma) = test system: HuO9 (Osteosarcoma)
Procedure, shortened: as §1

MSTO-211H (Mesothelioma) = test system: MSTO-211H (Mesothelioma)
Procedure, shortened: as §1

[6] = test system: GDM-1 (Acute Myeloid Leukemia)
Procedure, shortened: as §1

EW-22 (Ewing's Sarcoma) = test system: EW-22 (Ewing's Sarcoma)
Procedure, shortened: as §1

D-392MG (Glioblastoma) = test system: D-392MG (Glioblastoma)
Procedure, shortened: as §1

SK-MEL-1 (Melanoma) = test system: SK-MEL-1 (Melanoma)
Procedure, shortened: as §1

[7] = test system: NCI-H1688 (Small Cell Lung Carcinoma)
Procedure, shortened: as §1

[8] = test system: EFM-192A (Breast Carcinoma)
Procedure, shortened: as §1

[9] = test system: PA-TU-8902 (Pancreatic Carcinoma)
Procedure, shortened: as §1

[10] = test system: HLE (Hepatocellular Carcinoma)
Procedure, shortened: as §1

[11] = test system: D-283MED (Other Solid Carcinomas)
Procedure, shortened: as §1

[12] = test system: DOK (Oral Cavity Carcinoma)
Procedure, shortened: as §1

[13] = test system: HCC-827 (Lung Adenocarcinoma)
Procedure, shortened: as §1

[14] = test system: CAL-39 (Other Solid Carcinomas)
Procedure, shortened: as §1

| Structure (SMILES) | combination Emax [1] | combination Emax [2] | combination Emax [3] | combination Emax (CS1 (Chondrosarcoma)) | combination Emax [4] | combination Emax [5] | combination Emax (HuO9 (Osteosarcoma)) | combination Emax (MSTO-211H (Mesothelioma)) | combination Emax [6] | combination Emax (EW-22 (Ewing's Sarcoma)) | combination Emax (D-392MG (Glioblastoma)) | combination Emax (SK-MEL-1 (Melanoma)) | combination Emax [7] | combination Emax [8] | combination Emax [9] | combination Emax [10] | combination Emax [11] | combination Emax [12] | combination Emax [13] | combination Emax [14] |
| --- | --- | --- | --- | --- | --- | --- | --- | --- | --- | --- | --- | --- | --- | --- | --- | --- | --- | --- | --- | --- |
| CN(C)CCCOc1ccc(-c2ccc3ncc4c(c3c2)n(C2CCOCC2)c(=O)n4C)cn1 [AZD0156] + O=C(c1cc(Cc2n[nH]c(=O)c3ccccc23)ccc1F)N1CCN(C(=O)C2CC2)CC1 [Olaparib] (first compound max 3 µM, partner max 3 µM) | 0.0957 | 0.141 | 0.252 | 0.296 | 0.203 | 0.212 | 0.49 | 0.0713 | 0.533 | 0.872 | 0.131 | 0.0982 | 0.206 | 0.248 | 0.239 | 0.335 | 0.557 | 0.361 | 0.325 | 0.331 |
| C=CCn1c(=O)c2cnc(Nc3ccc(N4CCN(C)CC4)cc3)nc2n1-c1cccc(C(C)(C)O)n1 [AZD1775] + C1CN(CCC1(C(=O)N[C@@H](CCO)C2=CC=C(C=C2)Cl)N)C3=NC=NC4=C3C=CN4 [Capivasertib] (first compound max 3 µM, partner max 3 µM) | 0.83 | 0.508 | 0.799 | 0.63 | 0.771 | 0.949 | 0.902 | 0.352 | 0.824 | 0.786 | 0.42 | 0.336 | 0.687 | 0.494 | 0.527 | 0.858 | 0.904 | 0.754 | 0.655 | 0.782 |
| CN(CCO)CC[C@H](CSc1ccccc1)Nc1ccc(S(=O)(=O)NC(=O)c2ccc(N3CCC([C@@H](O)c4ccccc4-c4ccc(Cl)cc4)CC3)cc2)cc1S(=O)(=O)C(F)(F)F [AZD4320] + C1CN(CCC1(C(=O)N[C@@H](CCO)C2=CC=C(C=C2)Cl)N)C3=NC=NC4=C3C=CN4 [Capivasertib] (first compound max 1 µM, 7x7, partner max 3 µM) | 0.528 | 0.153 | 0.624 | 0.491 | 0.297 | 0.212 | 0.873 | 0.48 | 0.991 | 0.851 | 0.189 | 0.419 | 0.575 | 0.418 | 0.156 | 0.274 | 0.763 | 0.39 | 0.201 | 0.286 |
| CN(CCO)CC[C@H](CSc1ccccc1)Nc1ccc(S(=O)(=O)NC(=O)c2ccc(N3CCC([C@@H](O)c4ccccc4-c4ccc(Cl)cc4)CC3)cc2)cc1S(=O)(=O)C(F)(F)F [AZD4320] + C=CCn1c(=O)c2cnc(Nc3ccc(N4CCN(C)CC4)cc3)nc2n1-c1cccc(C(C)(C)O)n1 [AZD1775] (first compound max 1 µM, partner max 1 µM) | 0.903 | 0.271 | 0.745 | 0.647 | 0.588 | 0.88 | 0.949 | 0.933 | 1 | 0.988 | 0.763 | 0.584 | 0.87 | 0.302 | 0.296 | 0.871 | 0.985 | 0.504 | 0.301 | 0.345 |
| CN(CCO)CC[C@H](CSc1ccccc1)Nc1ccc(S(=O)(=O)NC(=O)c2ccc(N3CCC([C@@H](O)c4ccccc4-c4ccc(Cl)cc4)CC3)cc2)cc1S(=O)(=O)C(F)(F)F [AZD4320] + CCN(CCO)CCCOc1ccc2c(Nc3cc(CC(=O)Nc4cccc(F)c4)[nH]n3)ncnc2c1 [AZD2811] (first compound max 1 µM, 7x7, partner max 1 µM) | 0.775 | 0.391 | 0.545 | 0.683 | 0.304 | 0.196 | 0.728 | 0.837 | 1 | 1 | 0.729 | 0.453 | 0.723 | 0.172 | 0.189 | 0.721 | 0.973 | 0.747 | 0.176 | 0.397 |
| CN(CCO)CC[C@H](CSc1ccccc1)Nc1ccc(S(=O)(=O)NC(=O)c2ccc(N3CCC([C@@H](O)c4ccccc4-c4ccc(Cl)cc4)CC3)cc2)cc1S(=O)(=O)C(F)(F)F [AZD4320] + CN(C)CCCOc1ccc(-c2ccc3ncc4c(c3c2)n(C2CCOCC2)c(=O)n4C)cn1 [AZD0156] (first compound max 1 µM, 7x7, partner max 1 µM) | 0.328 | 0.129 | 0.248 | 0.427 | 0.252 | 0.623 | 0.79 | 0.435 | 1 | 0.897 | 0.218 | 0.498 | 0.487 | 0.234 | 0.0883 | 0.399 | 0.818 | 0.136 | 0.22 | 0.181 |
| CN(CCO)CC[C@H](CSc1ccccc1)Nc1ccc(S(=O)(=O)NC(=O)c2ccc(N3CCC([C@@H](O)c4ccccc4-c4ccc(Cl)cc4)CC3)cc2)cc1S(=O)(=O)C(F)(F)F [AZD4320] + C[C@@H]1COCCN1C2=NC(=NC(=C2)C3(CC3)[S@](=N)(=O)C)C4=C5C=CNC5=NC=C4 [AZD6738] (first compound max 1 µM, 7x7, partner max 10 µM) | 0.973 | 0.443 | 0.563 | 0.83 | 0.842 | 0.811 | 0.956 | 0.959 | 1 | 1 | 0.792 | 0.597 | 0.728 | 0.349 | 0.341 | 0.871 | 0.992 | 0.587 | 0.551 | 0.619 |
| CN(CCO)CC[C@H](CSc1ccccc1)Nc1ccc(S(=O)(=O)NC(=O)c2ccc(N3CCC([C@@H](O)c4ccccc4-c4ccc(Cl)cc4)CC3)cc2)cc1S(=O)(=O)C(F)(F)F [AZD4320] + C[C@@H](Nc1cc(F)cc(F)c1)c1cc(C(=O)N(C)C)cc2c(=O)cc(N3CCOCC3)oc12 [AZD8186] (first compound max 1 µM, 7x7, partner max 3 µM) | 0.674 | 0.326 | 0.485 | 0.839 | 0.418 | 0.676 | 0.953 | 0.751 | 1 | 1 | 0.649 | 0.722 | 0.484 | 0.345 | 0.387 | 0.48 | 0.928 | 0.301 | 0.393 | 0.41 |
| CN(CCO)CC[C@H](CSc1ccccc1)Nc1ccc(S(=O)(=O)NC(=O)c2ccc(N3CCC([C@@H](O)c4ccccc4-c4ccc(Cl)cc4)CC3)cc2)cc1S(=O)(=O)C(F)(F)F [AZD4320] + Cc1cc2ncnn2cc1Nc1ncc2c(n1)n(C1CCOCC1)c(=O)n2C [AZD7648] (first compound max 1 µM, 7x7, partner max 10 µM) | 0.264 | 0.174 | 0.393 | 0.347 | 0.282 | 0.675 | 0.77 | 0.327 | 0.982 | 0.905 | 0.169 | 0.606 | 0.617 | 0.226 | 0.144 | 0.33 | 0.923 | 0.362 | 0.182 | 0.371 |
| CN(CCO)CC[C@H](CSc1ccccc1)Nc1ccc(S(=O)(=O)NC(=O)c2ccc(N3CCC([C@@H](O)c4ccccc4-c4ccc(Cl)cc4)CC3)cc2)cc1S(=O)(=O)C(F)(F)F [AZD4320] + Cn1cnc2c(F)c(Nc3ccc(Br)cc3Cl)c(C(=O)NOCCO)cc21 [Selumetinib] (first compound max 1 µM, 7x7, partner max 3 µM) | 0.526 | 0.35 | 0.79 | 0.847 | 0.361 | 0.737 | 0.979 | 0.531 | 1 | 1 | 0.483 | 0.976 | 0.468 | 0.284 | 0.7 | 0.504 | 0.918 | 0.562 | 0.298 | 0.604 |
| COc1nnc2ccc(N3CCC(c4ccc(OCCN5CCN(C)C(=O)[C@H]5C)cc4)CC3)nn12 [AZD5153] + C=CCn1c(=O)c2cnc(Nc3ccc(N4CCN(C)CC4)cc3)nc2n1-c1cccc(C(C)(C)O)n1 [AZD1775] (first compound max 1 µM, partner max 1 µM) | 0.642 | 0.53 | 0.655 | 0.553 | 0.677 | 0.917 | 0.919 | 0.255 | 0.961 | 0.781 | 0.497 | 0.568 | 0.707 | 0.391 | 0.502 | 0.61 | 0.988 | 0.658 | 0.583 | 0.788 |
| Cc1c2c(nn1C)CSCc1cc(n(C)n1)CSc1cc(c3ccccc3c1)OCCCc1c(C(=O)O)n(C)c3c-2c(Cl)ccc13 [AZD5991] + C[C@@H](Nc1cc(F)cc(F)c1)c1cc(C(=O)N(C)C)cc2c(=O)cc(N3CCOCC3)oc12 [AZD8186] (first compound max 1 µM, 7x7, partner max 3 µM) | 0.311 | 0.236 | 0.345 | 0.235 | 0.342 | 1 | 1 | 0.313 | 0.767 | 0.491 | 0.301 | 0.153 | 0.339 | 0.703 | 0.173 | – | 0.342 | 0.459 | 0.288 | 0.704 |

Source: the supplement of paper PMC11061612
